Measured values as given in patent US7709516B2, “Helix 12 directed non-steroidal antiandrogens” (Endorecherche, Inc., priority 2005, dated 2010).
Where two headings read alike, the source gives them in different places.

Tests used:
[1] = system: rat prostate, seminal vesicle, levator ani muscle; assay: Systemic antiandrogenic activity in orchidectomized immature male rats with DHT implant; format: in vivo; conditions: rat +DHT, 0.5 mg/animal daily 7 days; for inhibition in vivo at 0.5 mg: Rattus norvegicus, 168 h; for Prostate % inhibition / Lev Ani % inhibition / SV % inhibition: Table 2
[2] = target: T1, Human Androgen Receptor (Homo sapiens, UniProt P10275); assay: Androgen receptor binding assay ([3H]R1881, HAP) in cytosol of HEK-293 cells transfected with hAR; conditions: relative to R1881 = 100, transfected cells
T1 sequence (P10275 1-920): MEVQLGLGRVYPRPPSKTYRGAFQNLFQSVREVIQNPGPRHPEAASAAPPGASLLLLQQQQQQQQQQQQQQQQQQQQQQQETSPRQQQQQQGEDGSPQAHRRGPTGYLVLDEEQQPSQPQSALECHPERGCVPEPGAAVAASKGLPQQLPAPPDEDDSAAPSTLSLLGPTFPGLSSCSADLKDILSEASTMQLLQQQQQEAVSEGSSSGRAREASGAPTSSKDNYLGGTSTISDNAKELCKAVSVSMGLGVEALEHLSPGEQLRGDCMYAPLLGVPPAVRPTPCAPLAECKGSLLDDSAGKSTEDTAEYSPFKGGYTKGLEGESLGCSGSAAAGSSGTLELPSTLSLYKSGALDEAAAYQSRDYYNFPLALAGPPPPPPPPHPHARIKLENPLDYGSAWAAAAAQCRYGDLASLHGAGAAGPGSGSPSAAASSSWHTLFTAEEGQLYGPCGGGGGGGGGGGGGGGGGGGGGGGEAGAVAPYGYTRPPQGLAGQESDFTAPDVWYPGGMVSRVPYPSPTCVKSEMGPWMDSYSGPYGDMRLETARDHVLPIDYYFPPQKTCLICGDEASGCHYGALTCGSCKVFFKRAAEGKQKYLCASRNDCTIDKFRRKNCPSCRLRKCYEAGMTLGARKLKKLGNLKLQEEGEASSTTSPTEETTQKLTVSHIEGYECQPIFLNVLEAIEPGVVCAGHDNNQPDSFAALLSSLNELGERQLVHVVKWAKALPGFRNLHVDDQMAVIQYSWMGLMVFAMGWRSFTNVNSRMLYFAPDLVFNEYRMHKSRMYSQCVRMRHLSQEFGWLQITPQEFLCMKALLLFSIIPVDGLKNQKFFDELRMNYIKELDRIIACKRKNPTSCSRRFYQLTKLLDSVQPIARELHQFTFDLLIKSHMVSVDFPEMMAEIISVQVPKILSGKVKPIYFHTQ

[3] = system: Shionogi mouse mammary carcinoma cells; assay: Androgenic/antiandrogenic activity: inhibition of DHT-stimulated Shionogi cell number; format: cell-based; conditions: DHT-stimulated Shionogi cell number
[4] = Prostate cell, po, read-out: Lev Ani % inhibition, Table 1, p.o, levator ani
[5] = Prostate cell, po, read-out: SV % inhibition, Table 1, p.o, seminal vesicle
[6] = po, read-out: Prostate % inhibition, Table 1, p.o
[7] = Mus musculus, read-out: Shionogi Antiandrogenic Activity IC50, Table 1
[8] = s.c. or p.o. (route not marked)
[9] = s.c. or p.o. (route not marked), levator ani
[10] = s.c. or p.o. (route not marked), seminal vesicle
[11] = Mus musculus, read-out: Shionogi Antiandrogenic Activity IC50, Table 2
[12] = read-out: Lev Ani % inhibition, Table 1, s.c. or p.o. (route not marked), levator ani
[13] = read-out: Prostate % inhibition, Table 1, s.c. or p.o. (route not marked in cell)
[14] = read-out: SV % inhibition, Table 1, s.c. or p.o. (route not marked), seminal vesicle

Row | Compound | inhibition in vivo at 0.5 mg [1, 4] [%] | inhibition in vivo at 0.5 mg [1, 5] [%] | inhibition in vivo at 0.5 mg [1, 6] [%] | Human Androgen Receptor Binding (%) RBA R1881 = 100 ([2]; Table 1) [%] | IC50 [3, 7] [nM] | other results
1 | CC1(C)C(=O)N(c2ccc(C#N)c(C(F)(F)F)c2)C(=S)N1CCCOc1ccc(S(=O)(=O)N2CCCC2)cc1 [EM-8103] | 16 | 37 | 18 | 29.3 | 41.5 | 
2 | Cc1cc(=O)oc2ccc(OCCCN3C(=S)N(c4ccc(C#N)c(C(F)(F)F)c4)C(=O)C3(C)C)cc12 [EM-8259] | 53 | 53 | 31 | 39.6 | 13.6 | 
3 | CC(C)S(=O)(=O)c1ccc(OCCCN2C(=S)N(c3ccc(C#N)c(C(F)(F)F)c3)C(=O)C2(C)C)cc1 [EM-8131] | 47 | 84 | 47 | 9.3 | 9.1 | 
4 | CC(C)Sc1ccc(OCCCN2C(=S)N(c3ccc(C#N)c(C(F)(F)F)c3)C(=O)C2(C)C)cc1 [EM-8132] | 67 | 86 | 47 | 1.0 | 24 | 
5 | Cc1cc(CN2CCCC2)ccc1OCCC1(O)CCN(c2ccc(C#N)c(Cl)c2)CC1 [EM-7678] |  |  |  |  |  | Prostate % inhibition [1, 8]: 7%; Lev Ani % inhibition [1, 9]: 9%; SV % inhibition [1, 10]: 10%; Human Androgen Receptor Binding (%) RBA R1881 = 100 ([2]; Table 2): 3.5%; IC50 [3, 11]: 13.8 nM
6 | CC(C)S(=O)(=O)c1ccc(OCCC2(O)CCN(c3ccc(C#N)c(C(F)(F)F)c3)CC2)cc1 [EM-8228] |  |  |  |  |  | inhibition in vivo at 0.5 mg ([1]; read-out: Lev Ani % inhibition, Table 2, s.c. or p.o. (route not marked), levator ani): 55%; inhibition in vivo at 0.5 mg ([1]; read-out: Prostate % inhibition, Table 2, s.c. or p.o. (route not marked)): 32%; inhibition in vivo at 0.5 mg ([1]; read-out: SV % inhibition, Table 2, s.c. or p.o. (route not marked), seminal vesicle): 0%; Human Androgen Receptor Binding (%) RBA R1881 = 100 ([2]; Table 2): <1.0%; IC50 [3, 11]: 45.1 nM
7 | CC(C)NCc1cccc(OCCCN2C(=S)N(c3ccc(C#N)c(C(F)(F)F)c3)C(=O)C2(C)C)c1 [EM-7096] |  |  |  | 3.0 | 27.5 | inhibition in vivo at 0.5 mg [1, 12]: 50%; inhibition in vivo at 0.5 mg [1, 13]: 42%; inhibition in vivo at 0.5 mg [1, 14]: 64%
8 | CC1(C)C(=O)N(c2ccc(C#N)c(C(F)(F)F)c2)C(=S)N1CCCOc1ccc(C(N)=O)cc1 [EM-8156] | 47 | 65 | 32 | 17.5 | 7.9 | 
9 | CC1(C)C(=O)N(c2ccc(C#N)c(C(F)(F)F)c2)C(=S)N1CCCOc1ccc2c(c1)OCC2=O [EM-8154] | 41 | 42 | 11 | 72.4 | 17.1 | 
10 | CC1(C)C(=O)N(c2ccc(C#N)c(C(F)(F)F)c2)C(=S)N1CCCOc1ccc(-n2ccnc2)cc1 [EM-8062] | 63 | 79 | 37 | 15.6 | 6.6 | 
11 | Cc1cc(CN2CCCC2)ccc1OCCC1(O)CCN(c2ccc(C#N)c(Cl)c2)CC1 [EM-7735] |  |  |  |  |  | Prostate % inhibition [1, 8]: 0%; Lev Ani % inhibition [1, 9]: 29%; SV % inhibition [1, 10]: 23%; Human Androgen Receptor Binding (%) RBA R1881 = 100 ([2]; Table 2): 9.6%; IC50 ([3]; read-out: Shionogi Antiandrogenic Activity IC50, Table 2): 7.9 nM
12 | COC(=O)c1ccc(OCCCN2C(=S)N(c3ccc(C#N)c(C(F)(F)F)c3)C(=O)C2(C)C)cc1 [EM-7260] |  |  |  | 93.3 | 17 | inhibition in vivo at 0.5 mg [1, 12]: 0%; inhibition in vivo at 0.5 mg [1, 13]: 25%; inhibition in vivo at 0.5 mg [1, 14]: 47%
13 | CC(=O)c1ccc(OCCCN2C(=S)N(c3ccc(C#N)c(C(F)(F)F)c3)C(=O)C2(C)C)cc1 [EM-7168] |  |  |  | 49.3 | 13 | inhibition in vivo at 0.5 mg [1, 12]: 0%; inhibition in vivo at 0.5 mg [1, 13]: 14%; inhibition in vivo at 0.5 mg [1, 14]: 54%
14 | CC(C)NCc1ccc(OCCCN2C(=S)N(c3ccc(C#N)c(Cl)c3)C(=O)C2(C)C)cc1 [EM-7822] |  |  |  | 4.9 | 5.9 | inhibition in vivo at 0.5 mg [1, 12]: 60%; inhibition in vivo at 0.5 mg [1, 13]: 53%; inhibition in vivo at 0.5 mg [1, 14]: 82%
